From ChEMBL document CHEMBL1201862, “PubChem BioAssay data set” (2004)
Activity calls are given as the source filed them.

Tests used:
[1] = target: T1, Histone-lysine N-methyltransferase NSD2 (Homo sapiens, UniProt O96028); assay type: biochemical
T1 sequence (O96028 whole entry): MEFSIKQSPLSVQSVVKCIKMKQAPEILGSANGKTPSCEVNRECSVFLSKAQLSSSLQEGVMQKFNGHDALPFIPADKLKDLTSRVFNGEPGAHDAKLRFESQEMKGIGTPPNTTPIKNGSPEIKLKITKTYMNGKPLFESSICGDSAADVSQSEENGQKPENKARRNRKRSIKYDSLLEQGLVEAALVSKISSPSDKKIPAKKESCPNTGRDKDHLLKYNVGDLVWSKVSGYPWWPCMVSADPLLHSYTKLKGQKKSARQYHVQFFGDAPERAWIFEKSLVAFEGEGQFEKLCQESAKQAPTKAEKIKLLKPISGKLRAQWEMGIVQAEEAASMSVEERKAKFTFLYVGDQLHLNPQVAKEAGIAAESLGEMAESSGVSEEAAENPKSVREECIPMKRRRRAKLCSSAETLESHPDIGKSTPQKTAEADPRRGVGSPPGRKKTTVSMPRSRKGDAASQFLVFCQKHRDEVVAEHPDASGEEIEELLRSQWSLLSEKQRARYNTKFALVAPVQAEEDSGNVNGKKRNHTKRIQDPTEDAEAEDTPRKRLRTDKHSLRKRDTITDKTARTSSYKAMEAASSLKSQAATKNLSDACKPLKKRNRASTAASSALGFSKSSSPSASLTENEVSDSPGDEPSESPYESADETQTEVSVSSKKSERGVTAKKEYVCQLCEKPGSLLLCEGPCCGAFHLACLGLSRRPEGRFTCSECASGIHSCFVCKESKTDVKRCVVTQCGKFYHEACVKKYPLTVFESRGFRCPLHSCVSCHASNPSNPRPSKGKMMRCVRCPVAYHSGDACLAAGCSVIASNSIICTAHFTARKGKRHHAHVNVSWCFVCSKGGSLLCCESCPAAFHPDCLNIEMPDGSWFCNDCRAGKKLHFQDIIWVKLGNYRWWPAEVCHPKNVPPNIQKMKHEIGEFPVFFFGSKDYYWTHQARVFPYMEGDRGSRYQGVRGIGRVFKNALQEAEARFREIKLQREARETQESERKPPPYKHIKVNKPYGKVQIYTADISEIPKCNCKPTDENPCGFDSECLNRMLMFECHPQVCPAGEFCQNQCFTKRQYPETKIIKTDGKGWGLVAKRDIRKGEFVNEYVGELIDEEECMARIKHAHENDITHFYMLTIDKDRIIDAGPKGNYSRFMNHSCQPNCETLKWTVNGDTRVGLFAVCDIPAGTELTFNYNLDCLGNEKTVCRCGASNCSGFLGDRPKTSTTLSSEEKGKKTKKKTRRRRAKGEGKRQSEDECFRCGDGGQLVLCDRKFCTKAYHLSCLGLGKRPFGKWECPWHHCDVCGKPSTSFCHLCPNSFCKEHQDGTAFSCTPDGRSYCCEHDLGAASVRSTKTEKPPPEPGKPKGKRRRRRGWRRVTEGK

[2] = target: T2, 1-phosphatidylinositol 4,5-bisphosphate phosphodiesterase gamma-1 (Homo sapiens, UniProt P19174); assay: Counterscreen for inhibitors of phospholipase C isozymes (PLC-B3): Fluorescence-based biochemical high throughput dose response assay to identify inhibitors of phospholipase C isozymes (PLC-gamma1).
T2 sequence (P19174 whole entry): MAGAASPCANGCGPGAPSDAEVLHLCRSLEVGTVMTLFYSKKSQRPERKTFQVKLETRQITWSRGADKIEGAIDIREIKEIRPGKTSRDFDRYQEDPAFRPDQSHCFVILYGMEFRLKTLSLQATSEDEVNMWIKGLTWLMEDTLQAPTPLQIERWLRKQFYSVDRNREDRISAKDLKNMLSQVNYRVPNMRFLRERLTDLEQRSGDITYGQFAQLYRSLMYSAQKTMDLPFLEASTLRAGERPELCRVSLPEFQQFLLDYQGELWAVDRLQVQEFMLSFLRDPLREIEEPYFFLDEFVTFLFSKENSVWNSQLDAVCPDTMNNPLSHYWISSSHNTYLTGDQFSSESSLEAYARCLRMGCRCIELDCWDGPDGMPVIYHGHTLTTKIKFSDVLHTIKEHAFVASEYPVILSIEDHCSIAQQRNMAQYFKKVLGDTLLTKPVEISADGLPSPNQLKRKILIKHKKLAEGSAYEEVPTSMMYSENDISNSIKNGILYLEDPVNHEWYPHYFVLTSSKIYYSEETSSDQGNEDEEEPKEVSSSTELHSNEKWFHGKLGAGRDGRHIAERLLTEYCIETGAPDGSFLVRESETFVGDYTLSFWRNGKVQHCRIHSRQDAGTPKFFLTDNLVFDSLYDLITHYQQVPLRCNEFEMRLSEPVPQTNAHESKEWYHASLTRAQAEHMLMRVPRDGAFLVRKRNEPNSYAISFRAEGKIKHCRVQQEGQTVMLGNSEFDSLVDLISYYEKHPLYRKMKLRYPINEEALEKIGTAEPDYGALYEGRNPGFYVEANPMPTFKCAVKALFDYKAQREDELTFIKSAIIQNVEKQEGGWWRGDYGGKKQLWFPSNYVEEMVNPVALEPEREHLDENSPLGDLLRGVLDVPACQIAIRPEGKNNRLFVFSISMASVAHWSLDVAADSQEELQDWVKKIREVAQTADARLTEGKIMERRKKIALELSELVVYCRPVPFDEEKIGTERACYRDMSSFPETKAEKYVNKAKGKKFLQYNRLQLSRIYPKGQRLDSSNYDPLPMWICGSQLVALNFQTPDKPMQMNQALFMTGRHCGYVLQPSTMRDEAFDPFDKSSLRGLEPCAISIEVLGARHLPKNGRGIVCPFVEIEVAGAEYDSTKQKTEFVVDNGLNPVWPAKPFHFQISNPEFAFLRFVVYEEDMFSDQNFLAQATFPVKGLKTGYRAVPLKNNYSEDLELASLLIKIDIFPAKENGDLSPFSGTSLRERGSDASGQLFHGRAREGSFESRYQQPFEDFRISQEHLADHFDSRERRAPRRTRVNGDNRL

Structure (SMILES) | AC50 [1] | IC50 [2]
O=C(O)c1cccc(-n2cccc2/C=C2/NC(=O)N(c3ccc(Cl)cc3)C2=O)c1 | 0.72 µM (active) | > 122 µM (inactive)
O=S(=O)(O)c1cc(Cl)cc(N=Nc2ccc(O)cc2O)c1O | 7.27 µM (active) | > 122 µM (inactive)
